From US11737999B2, “Amino acid compositions and methods for the treatment of post-acute sequelae of COVID-19” (AXCELLA HEALTH INC., priority 2021, dated 2023)

Columns and labels:
MCP1/CCL2 = MCP1/CCL2 secretion by ELISA in primary human hepatocytes with FFA + TNFα; assay type: cell-based
MCP-1 = MCP-1 chemokine secretion in primary human hepatic stellate cells stimulated with TNFα; assay type: cell-based
IL-6 [1] = assay: IL-6 cytokine secretion in primary human hepatic stellate cells stimulated with TNFα; assay type: cell-based; settings: for Fold Change IL-6 Secretion Normalized Per Cell: Isoleucine 66 μM (plasma level, reference)
Col1a1 = Col1a1 gene expression (RT-qPCR) in primary human hepatic stellate cells stimulated with TGFβ1; assay type: cell-based; settings: for Col1a1 Fold Expression Relative to Control, Mean: single amino acid
Procollagen Iα1 = Procollagen Iα1 secretion (ELISA) in primary human hepatic stellate cells stimulated with TGFβ1; assay type: cell-based; settings: for Procollagen lα1 Secretion (Fold Change of 1X), Mean: first donor; for Procollagen lα1 Secretion (Fold Change of 1X), Mean / Procollagen Iα1 Secretion, Mean: single amino acid
IL-6 [2] = assay: LPS-induced IL-6 secretion in primary human monocyte-derived macrophages; settings: for IL-6 Measurements, Mean: LPS, baseline subtracted values
TNF-α = assay: LPS-induced TNF-α secretion in primary human monocyte-derived macrophages; settings: for TNF-α Measurements Mean (baseline subtracted): 0.15 ng/mL LPS
[3] = hepatic stellate cells, three donors
[4] = Donor 1, Conc. 66 μM (baseline)

Q: What does the source list for CC[C@H](C)[C@H](N)C(=O)O [Isoleucine, L-Isoleucine]?
A: MCP1 expression relative to Control, Mean (MCP1/CCL2; Donor 1, Conc. 66 μM): −1.2E−15; MCP1 expression relative to Control, Mean (MCP1/CCL2; Donor 1, Conc. 1328 μM): −0.3073; MCP1 expression relative to Control, Mean (MCP1/CCL2; Donor 1, Conc. 3320 μM): −2.417; MCP1 expression relative to Control, Mean (MCP1/CCL2; Donor 1, Conc. 6639 μM): −0.205; MCP1 expression relative to Control, Mean (MCP1/CCL2; Donor 2, Conc. 66 μM): 0; MCP1 expression relative to Control, Mean (MCP1/CCL2; Donor 2, Conc. 1328 μM): 26.62; MCP1 expression relative to Control, Mean (MCP1/CCL2; Donor 2, Conc. 3320 μM): −5.645; MCP1 expression relative to Control, Mean (MCP1/CCL2; Donor 2, Conc. 6639 μM): 18.62; MCP1/CCL2 secretion (summary in words) (MCP1/CCL2; primary human hepatocytes, two healthy donors): did not have an effect on MCP1/CCL2 secretion; Fold Change MCP1 Secretion Normalized Per Cell, Mean (MCP-1; donor 3, Conc. 66 μM): 1.0000 Fold Change; Fold Change MCP1 Secretion Normalized Per Cell (MCP-1; donor 4, Isoleucine 66 μM (plasma level, reference)): 1.0000 fold change; Fold Change IL-6 Secretion Normalized Per Cell (IL-6 [1]; donor 1): 1.0000 fold change; Fold Change IL-6 Secretion Normalized Per Cell (IL-6 [1]; donor 2): 1.0000 fold change; IL-6 secretion (summary in words) (IL-6 [1]; hepatic stellate cells, two donors): no significant effect on IL-6 secretion; Col1a1 Fold Expression Relative to Control, Mean (Col1a1; first donor, 3320 μM): 1.10 fold; Col1a1 gene expression (summary in words) (Col1a1; [3]): did not significantly change Col1a1 gene expression in any donor; Col1a1 Fold Expression Relative to Control, Mean (Col1a1; second donor (Table 27), 66 μM (baseline)): 1.00 fold; Col1a1 Fold Expression Relative to Control, Mean (Col1a1; second donor (Table 27), 1328 μM): 0.97 fold; Col1a1 Fold Expression Relative to Control, Mean (Col1a1; second donor (Table 27), 3320 μM): 0.99 fold; Col1a1 Fold Expression Relative to Control, Mean (Col1a1; second donor (Table 27), 6639 μM): 1.03 fold; Col1a1 Fold Expression Relative to Control, Mean (Col1a1; second donor (Table 29), 1328 μM): 0.94 fold; Col1a1 Fold Expression Relative to Control, Mean (Col1a1; second donor (Table 29), 3320 μM): 0.94 fold; Col1a1 Fold Expression Relative to Control, Mean (Col1a1; second donor (Table 29), 6639 μM): 1.03 fold; Procollagen lα1 Secretion (Fold Change of 1X), Mean (Procollagen Iα1; 1328 μM): 0.9229 fold; Procollagen lα1 Secretion (Fold Change of 1X), Mean (Procollagen Iα1; 3320 μM): 1.1366 fold; Procollagen lα1 Secretion (Fold Change of 1X), Mean (Procollagen Iα1; 6639 μM): 1.2144 fold; procollagen Iα1 secretion (summary in words) (Procollagen Iα1; [3]): significantly increased procollagen Iα1 secretion in two of three donors; Procollagen Iα1 Secretion, Mean (Procollagen Iα1; second donor, Conc. 66 μM (baseline)): 1.0000 Fold Change of 1×; Procollagen Iα1 Secretion, Mean (Procollagen Iα1; second donor, Conc. 1328 μM): 1.4811 Fold Change of 1×; Procollagen Iα1 Secretion, Mean (Procollagen Iα1; second donor, Conc. 3320 μM): 1.4940 Fold Change of 1×; Procollagen Iα1 Secretion, Mean (Procollagen Iα1; second donor, Conc. 6639 μM): 1.5423 Fold Change of 1×; Procollagen Iα1 Secretion, Mean (Procollagen Iα1; third donor, Conc. 66 μM (baseline)): 1.0000 Fold Change of 1×; Procollagen Iα1 Secretion, Mean (Procollagen Iα1; third donor, Conc. 1328 μM): 1.2687 Fold Change of 1×; Procollagen Iα1 Secretion, Mean (Procollagen Iα1; third donor, Conc. 3320 μM): 1.2703 Fold Change of 1×; Procollagen Iα1 Secretion, Mean (Procollagen Iα1; third donor, Conc. 6639 μM): 1.4465 Fold Change of 1×; IL-6 Measurements, Mean (IL-6 [2]; [4]): 0; IL-6 Measurements, Mean (IL-6 [2]; Donor 2, Conc. 1328 μM): −2.318; IL-6 Measurements, Mean (IL-6 [2]; Donor 2, Conc. 3320 μM): 2.305; IL-6 Measurements, Mean (IL-6 [2]; Donor 2, Conc. 6639 μM): −1.774; IL-6 Measurements Mean (baseline subtracted) (IL-6 [2]; Donor 3, Conc. 3320 μM, 0.15 ng/mL LPS): 0; TNF-α Measurements Mean (baseline subtracted) (TNF-α; [4]): 0; TNF-α Measurements Mean (baseline subtracted) (TNF-α; Donor 1, Conc. 1328 μM): −42.68; TNF-α Measurements Mean (baseline subtracted) (TNF-α; Donor 1, Conc. 3320 μM): −96.3; TNF-α Measurements Mean (baseline subtracted) (TNF-α; Donor 1, Conc. 6639 μM): −40.95; LPS-induced TNF-α secretion (summary in words) (TNF-α; Donor 2): increased TNF-α secretion; TNF-α Measurements Mean (baseline subtracted) (TNF-α; Donor 2, Conc. 66 μM (baseline)): 4.74E−15; TNF-α Measurements Mean (baseline subtracted) (TNF-α; Donor 2, Conc. 1328 μM): 2.919; TNF-α Measurements Mean (baseline subtracted) (TNF-α; Donor 2, Conc. 3320 μM): 10.26; TNF-α Measurements Mean (baseline subtracted) (TNF-α; Donor 2, Conc. 6639 μM): 19.26; TNF-α Measurements Mean (baseline subtracted) (TNF-α; Donor 3, Conc. 66 μM (baseline)): −2.4E−15; TNF-α Measurements Mean (baseline subtracted) (TNF-α; Donor 3, Conc. 1328 μM): −6.23; TNF-α Measurements Mean (baseline subtracted) (TNF-α; Donor 3, Conc. 3320 μM): 3.309; TNF-α Measurements Mean (baseline subtracted) (TNF-α; Donor 3, Conc. 6639 μM): −1.66
